Laboratory results published in the supplement of paper PMC10307832.

Columns and labels:
Assay in all cases: relative viability (nuclei count vs DMSO), 5 days (fraction); higher = more cells survive
[1] = compound: C1CNCCC1C2=CC(=NN2)C3=CC=NC=C3 + CC(C)C[C@H](NC(=O)[C@H](Cc1ccccc1)NC(=O)c1cnccn1)B(O)O [Bortezomib] (partner 0.002 µM)
Summary of the method: (§1)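 Nuclei were stained with Hoechst during a one-step fixation (final 0.05% Triton X-100, 1% formaldehyde, 1 ug/ml Hoechst) carried out 5 days after dosing, then counted on 4× images. The cells, lung cancer lines in 1536-well plates, had been dosed by pin tool the day after seeding with one drug alone or a fixed anchor-drug dose plus five library-drug doses (not always all listed) in √10 steps. Relative viability is the nuclei count in treated wells divided by that in vehicle wells, and each value is the median of duplicate plates.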

[2] = compound: C[C@@H](N)c1ccc(C(=O)Nc2ccnc3[nH]ccc23)cc1 + Nc1nc2[nH]cc(CCc3ccc(C(=O)N[C@@H](CCC(=O)O)C(=O)O)cc3)c2c(=O)[nH]1 [Pemetrexed] (partner 0.2 µM)
Summary of the method: as §1

Tanzisertib + OSI-027 = compound: O[C@H]1CC[C@H](Nc2ncc3nc(Nc4c(F)cc(F)cc4F)n([C@H]4CCOC4)c3n2)CC1 [Tanzisertib] + COc1cccc2cc(-c3nc([C@H]4CC[C@H](C(=O)O)CC4)n4ncnc(N)c34)[nH]c12 [OSI-027] (partner 0.5 µM)
Summary of the method: as §1

[3] = compound: C1CNCCC1C2=CC(=NN2)C3=CC=NC=C3 + C[C@]1(O)C[C@@H](c2nc(-c3ccc4ccc(-c5ccccc5)nc4c3)c3c(N)nccn32)C1 [Linsitinib] (partner 1 µM)
Summary of the method: as §1

Row | Cell Line | relative viability ([1]; first compound 0.08 µM) | relative viability ([1]; first compound 0.8 µM) | relative viability ([1]; first compound 2.53 µM) | relative viability ([1]; first compound 8 µM) | relative viability ([2]; first compound 0.04 µM) | relative viability ([2]; first compound 0.1265 µM) | relative viability ([2]; first compound 0.4 µM) | relative viability ([2]; first compound 1.265 µM) | relative viability ([2]; first compound 4 µM) | relative viability (Tanzisertib + OSI-027; first compound 0.08 µM) | relative viability (Tanzisertib + OSI-027; first compound 0.253 µM) | relative viability (Tanzisertib + OSI-027; first compound 0.8 µM) | relative viability (Tanzisertib + OSI-027; first compound 2.53 µM) | relative viability (Tanzisertib + OSI-027; first compound 8 µM) | relative viability ([3]; first compound 0.08 µM) | relative viability ([3]; first compound 0.8 µM) | relative viability ([3]; first compound 2.53 µM) | relative viability ([3]; first compound 8 µM)
1 | HOP-62 | 0.479 | 0.84 | 1.15 | 0.728 | 0.286 | 0.344 | 0.252 | 0.298 | 0.288 | 0.845 | 0.868 | 0.76 | 0.833 | 0.848 | 0.892 | 1.12 | 1.19 | 1.08
2 | LC-2-ad | 1.07 | 1.52 | 0.994 | 0.944 | 0.263 | 0.267 | 0.248 | 0.279 | 0.259 | 1.02 | 0.744 | 0.911 | 0.915 | 0.606 | 0.805 | 0.825 | 0.909 | 0.869
3 | LCLC-97TM1 | 0.668 | 0.666 | 0.796 | 0.444 | 0.207 | 0.188 | 0.172 | 0.0771 | 0.21 | 0.541 | 0.435 | 0.495 | 0.368 | 0.517 | 0.142 | 0.183 | 0.201 | 0.211
4 | LCLC-103H | 1.06 | 0.936 | 1.3 | 1.12 | 0.417 | 0.426 | 0.493 | 0.51 | 0.407 | 0.458 | 0.44 | 0.438 | 0.427 | 0.509 | 1.07 | 0.846 | 1.1 | 0.951
5 | LOU-NH91 | 0.52 | 0.503 | 0.484 | 0.498 | 0.378 | 0.378 | 0.393 | 0.44 | 0.368 | 0.785 | 0.758 | 0.756 | 0.671 | 0.489 | 0.85 | 1 | 1.14 | 0.962
6 | LU99A | 1.1 | 1.26 | 1.35 | 1.08 | – | 0.189 | 0.191 | 0.23 | 0.188 | 0.305 | 0.316 | 0.296 | 0.29 | 0.302 | 0.53 | 0.579 | 0.551 | 0.513
7 | LXF-289 | 1.05 | 1.14 | 0.968 | 0.962 | 0.861 | 0.909 | 0.948 | 0.929 | 0.79 | 0.801 | 0.818 | 0.76 | 0.856 | 0.644 | 0.963 | 1.04 | 0.981 | 0.9
8 | NCI-H23 | 0.729 | 0.866 | 1.1 | 1.24 | 0.619 | 0.744 | 0.848 | – | 0.754 | 0.587 | 0.547 | 0.575 | 0.747 | 0.198 | 0.5 | 0.642 | 0.675 | 0.644
9 | NCI-H322M | 1.27 | 1.19 | 1.39 | 1.29 | 0.79 | 0.654 | 0.588 | 0.48 | 0.602 | 0.636 | 0.623 | 0.539 | 0.6 | 0.538 | 0.874 | 0.71 | 0.899 | 0.888
10 | NCI-H441 | – | 0.764 | 0.609 | 0.269 | 0.245 | 0.302 | 0.257 | 0.231 | 0.223 | 0.855 | 0.505 | 0.467 | 0.444 | 0.403 | 0.65 | 0.361 | 0.753 | 0.497
11 | NCI-H460 | 0.892 | 1.49 | 1.06 | 1.12 | 0.0682 | 0.063 | 0.0594 | 0.0603 | 0.0691 | 0.664 | 0.683 | 0.549 | 0.624 | 0.502 | 0.421 | 1.22 | 0.818 | 0.849
12 | NCI-H520 | 0.365 | 0.558 | 0.559 | 0.573 | 0.624 | 0.668 | 0.69 | 0.802 | 0.652 | 0.328 | 0.246 | 0.238 | 0.262 | 0.304 | 0.883 | 1.04 | 0.867 | 0.912
13 | NCI-H596 | 1 | 1.06 | 1.12 | 1.16 | 0.528 | 0.534 | 0.504 | 0.509 | 0.41 | 0.779 | 0.666 | 0.766 | 0.63 | 0.555 | 0.894 | 1.12 | 1.03 | 1.03
14 | NCI-H647 | 0.935 | 0.796 | 1.07 | 0.86 | 0.199 | 0.2 | 0.24 | 0.166 | 0.145 | 0.694 | 0.644 | 0.569 | 0.63 | 0.69 | 1.28 | 1.45 | 1.38 | 1.09
15 | NCI-H650 | 0.803 | 0.689 | 0.949 | 0.734 | – | 0.932 | 0.809 | – | 0.614 | 0.517 | 0.661 | 0.508 | 0.624 | 0.441 | 0.751 | 0.727 | 1.06 | 0.75
16 | NCI-H661 | 0.916 | 0.825 | 0.801 | 1.01 | 0.938 | 0.964 | 0.943 | 0.811 | 0.639 | 0.771 | 0.741 | 0.615 | 0.704 | 0.655 | 0.534 | 0.524 | 0.528 | 0.584
17 | NCI-H838 | 0.823 | 0.939 | 0.739 | 0.73 | 0.259 | 0.244 | 0.24 | 0.205 | 0.181 | 0.401 | 0.426 | 0.453 | 0.418 | 0.4 | 0.969 | 1.05 | 1.07 | 0.983
18 | NCI-H1355 | 1.23 | 1.22 | 1.27 | 1.26 | 1.1 | 1.06 | 1.01 | 1.06 | 1.05 | 0.479 | 0.425 | 0.445 | 0.423 | 0.371 | 0.868 | 0.71 | 0.891 | 0.797
